Values belong to the molecule of their own block, whether it stands above or below them.
Assays:
[1] = biological target: T1, AmtB-GlnK complex (Escherichia coli, UniProt P69681); experiment: native MS, mole fraction of lipid-bound states; format: binding; conditions: ADP present, 200 mM ammonium acetate pH 7.4
T1 construct: with Nitrogen regulatory protein GlnK
T1 sequence (P69681 23-428): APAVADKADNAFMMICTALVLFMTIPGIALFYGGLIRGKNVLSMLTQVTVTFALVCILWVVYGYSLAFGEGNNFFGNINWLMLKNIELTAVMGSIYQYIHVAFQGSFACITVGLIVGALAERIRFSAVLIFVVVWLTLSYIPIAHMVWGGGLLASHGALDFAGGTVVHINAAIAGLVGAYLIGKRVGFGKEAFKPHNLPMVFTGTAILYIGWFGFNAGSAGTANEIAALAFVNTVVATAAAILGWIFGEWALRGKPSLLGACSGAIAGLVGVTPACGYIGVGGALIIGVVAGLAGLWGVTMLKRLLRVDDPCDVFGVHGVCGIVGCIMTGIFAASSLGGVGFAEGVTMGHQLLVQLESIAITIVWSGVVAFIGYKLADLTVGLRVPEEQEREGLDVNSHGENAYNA
T1 sequence (P0AC55 1-112 partner): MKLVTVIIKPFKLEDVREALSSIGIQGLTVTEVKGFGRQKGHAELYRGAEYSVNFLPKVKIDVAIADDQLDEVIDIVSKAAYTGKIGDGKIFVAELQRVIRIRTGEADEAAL

[2] = biological target: T2, AqpZ (AqpZ-STII) (Escherichia coli, UniProt P60844); experiment: native MS lipid titration, sequential binding model; conditions: LDAO; first lipid bound; range over conditions; 200 mM ammonium acetate pH 7.4, room temperature; read-out: Kd1
T2 construct: C-terminal Strep-tag II
T2 sequence (P60844 1-231): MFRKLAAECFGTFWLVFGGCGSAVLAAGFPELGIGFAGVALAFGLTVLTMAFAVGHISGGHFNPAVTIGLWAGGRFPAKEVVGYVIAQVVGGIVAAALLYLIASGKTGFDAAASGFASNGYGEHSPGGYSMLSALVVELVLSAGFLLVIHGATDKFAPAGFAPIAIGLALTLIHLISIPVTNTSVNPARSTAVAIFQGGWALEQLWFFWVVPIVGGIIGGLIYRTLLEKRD

[3] = biological target: T3, Aquaporin Z from Escherichia coli containing a C-terminal Strep-tag II (Escherichia coli), P60844; experiment: native MS; 1 uM AqpZ in 200 mM ammonium acetate pH 7.4 with 2x CMC detergent (C8E4 or LDAO alone; DM, OGNG, NG, C8E4 or LDAO with 5 mM SPM or 60 mM TMAO); nanoESI, Exactive Plus EMR Orbitrap, room temperature; conditions: remark: other sources report otherwise
T3 chain: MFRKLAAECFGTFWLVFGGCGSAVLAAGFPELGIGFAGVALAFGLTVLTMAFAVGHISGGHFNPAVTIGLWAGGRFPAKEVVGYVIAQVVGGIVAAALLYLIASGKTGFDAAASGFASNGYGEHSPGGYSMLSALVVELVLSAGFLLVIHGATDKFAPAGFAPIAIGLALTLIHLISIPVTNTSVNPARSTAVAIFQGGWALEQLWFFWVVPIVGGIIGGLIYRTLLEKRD

Molecule: CCCCCCCC/C=C\CCCCCCCC(=O)O[C@H](COC(=O)CCCCCCCCCCCCCCC)COP(=O)(O)O [POPA]
native MS, mole fraction of lipid-bound states ([1]; several detergents): POPA and POPS binding to AmtB-GlnK was broadly comparable for the different detergents

Molecule: CCCCCCCC/C=C\CCCCCCCC(=O)O[C@H](COC(=O)CCCCCCCCCCCCCCC)COP(=O)(O)OCC(O)CO (some centres unmarked) [POPG]
native MS, mole fraction of lipid-bound states ([1]; several detergents): AmtB-GlnK in different detergent environments showed comparable binding of POPG

Kd [2]: 300 to 1400 nM
Molecule: CCCCCCCC/C=C\CCCCCCCC(=O)OC[C@H](COP(=O)(O)OCC(O)COP(=O)(O)OC[C@@H](COC(=O)CCCCCCC/C=C\CCCCCCCC)OC(=O)CCCCCCC/C=C\CCCCCCCC)OC(=O)CCCCCCC/C=C\CCCCCCCC (some centres unmarked) [TOCDL]
native MS, mole fraction of lipid-bound states ([1]; 2 μM complex, 25 μM lipid, C8E4, LDAO, DM or NG): binding of TOCDL was more prominent in LDAO and DM

stoichiometry N [3]: 4
B1: Aquaporin Z from Escherichia coli containing a C-terminal Strep-tag II, P60844 1-231 (natural protein)
chain: MFRKLAAECFGTFWLVFGGCGSAVLAAGFPELGIGFAGVALAFGLTVLTMAFAVGHISGGHFNPAVTIGLWAGGRFPAKEVVGYVIAQVVGGIVAAALLYLIASGKTGFDAAASGFASNGYGEHSPGGYSMLSALVVELVLSAGFLLVIHGATDKFAPAGFAPIAIGLALTLIHLISIPVTNTSVNPARSTAVAIFQGGWALEQLWFFWVVPIVGGIIGGLIYRTLLEKRD

Source: article PMC11503522, “Native Mass Spectrometry of Membrane Protein–Lipid Interactions in Different Detergent Environments” (Analytical Chemistry, 2024)
